Assay results taken from patent publication US20250073223A1, “TARGETED NANOCARRIERS FOR SYSTEMIC DELIVERY OF IRAK4 INHIBITORS TO INFLAMED TISSUES” (Oregon State University, priority 2023, published 2025).

Legend:
[1] = test system: mice with DSS-induced colitis; assay: DSS-induced colitis efficacy (colon length, body weight, colon damage); format: in vivo, C57BL/6 mice
Procedure: To evaluate the anti-inflammatory action of the developed VCAM1-IRAK4 NC, mice were administered with 5% DSS in drinking water for 7 days and injected IV with the VCAM1-targeted nanocarriers loaded with IRAK4 inhibitor (23 mg kg^−1) on day 0, 2, 4, and 6 of DSS treatment initiation (Y. Lec, K. Sugihara, M. G. Gillilland, 3rd, S. Jon, N. Kamada, J. J. Moon, Nat. Mater. 2020, 19, 118). […] A healthy control group without DSS administration and a DSS-induced colitis group without the injection of VCAM1-IRAK4 NC were also prepared. […] Pharmacother. 2022, 153, 113459).
In vivo evaluation of VCAM1-IRAK4 NC in mice with DSS-induced colitis. […] To evaluate the accumulation of VCAM1-targeted nanocarriers in inflamed tissue, the shaved mice with induced colitis were injected IV with SiNc-loaded IRAK4 NC and VCAM1-IRAK4 NC, and NIR fluorescence images of the excised colons and major organs were recorded 24 hours post-administration. The fluorescence images were obtained using a Pearl Impulse fluorescence imaging system (LI-COR, Lincoln, NE) and the mean fluorescence intensity of region of interest was obtained using Pearl Impulse Software (LI-COR, Lincoln, NE). […] Colon length without the cecum was measured, and colon tissues were gently washed with PBS. […] NucBlue™ Fixed Cell ReadyProbes™ Reagent (ThermoFisher Scientific, Waltham, MA, USA) was used to stain the nuclei. […]

[2] = cited from earlier work

CC[C@@H]1[C@H](F)C(=O)N[C@@H]1COc1nccc2cc(C(N)=O)c(OC)cc12 [PF-06650833, zimlovisertib]
average colon length ([1]; free drug in 60% saline, 30% PEG400, 10% DMSO, 23 mg kg^−1, 4 IV injections, healthy 5.97±0.18, DSS saline 4.87±0.12 (FIG. 15A)): 4.74±0.35 cm
therapeutic effect on colitis ([1]; free drug, 23 mg kg^−1, 4 IV injections every 2 days): no noticeable therapeutic effect
absolute oral bioavailability ([2]; oral): low
dose-limiting side effects ([2]; two phase I clinical trials): no dose-limiting side effects were observed
tolerability ([2]; two phase I clinical trials): well tolerated
